The record followed here is publication PMC9916883, “Betaine- and L-Carnitine-Based Ionic Liquids as Solubilising and Stabilising Agents for the Formulation of Antimicrobial Eye Drops Containing Diacerein” (International Journal of Molecular Sciences, 2023).

The nature of series [1]: DIA elimination and degradation kinetics in tear fluid. In kind it is in vivo, New Zealand albino rabbits. The settings on record: one drop (50 μL), 0.27 M IL, n = 10. Here is the method: Male New Zealand albino rabbits weighing approximately 2.6–3 Kg, kept in standard housing conditions, were used for in vivo studies. The animals were treated as prescribed in the guidelines of the European Community Council Directive 2010/63. The animal protocol was approved by the Italian Ministry of University and Research (authorisation n. 192/2019-PR). The eye drops were prepared in CB (200 mOsm/kg). […] A suspension of plain DIA (0.34 M) in CB was used as a reference sample (230 mOsm/kg). The samples’ osmolality was checked using a Roebling osmometer (calibrated with NaCl 300 mOsm/kg H2O).
[…] CB was used as blank control. At predefined intervals (i.e., 2, 4, 6, 8, 10, 15, 20, 25, and 30 min from instillation), tear fluid samples were taken from the lower margin strip using 1 µL disposable glass capillaries (Microcaps, Drummond Scientific Co., USA), which were washed with 1 µL and diluted with 100 µL of CB. The diluted samples were analysed by HPLC. […] For each of the three formulations studied, elimination curves were constructed, each determined from a single eye of different rabbits.

Series [2] can be described thus: Phase solubility study (apparent solubility of DIA and Rhe with ILs or HP-β-CD). It is filed as physicochemical. The settings on record: 25 °C, thermodynamic from solid, read-out: saturation solubility. How it is done: The increase in the apparent solubility of both DIA and Rhe in the presence of the ILs was evaluated. Briefly, aqueous solutions of the ILs were prepared in the range of 0–200 mg/mL, and an excess of either DIA or Rhe was added to each vial. The samples were then incubated for 30 min at 25°C, and the undissolved drug was removed by centrifugation at […] for 15 min (Hettich Mikro 120 centrifuge). […] The drug concentration was measured by UV–Vis analysis. The DIA phase solubility study was also compared to the phase solubility study of DIA in the presence of HP-β-CD as a reference solubility/stability-enhancing excipient. […] The complexation K was calculated through Higuchi and Connors’ method, as previously reported.
The size distribution and zeta potential values of the ILs’ aggregates in aqueous solutions were evaluated by using a Zetasizer Nano ZS (Malvern) at 25 °C. The samples were prepared by adding an excess of either DIA or Rhe (5 mg/mL) to the aqueous IL solutions, incubating them for 30 min at 25 °C, and finally removing the excess drugs by centrifugation. […] In contrast, for PB solutions, the solutions were prepared in water, and […] of 100 mM pH 7 phosphate buffer was added per 1 mL of aqueous solution, directly in the cuvette, before the dynamic light scattering (DLS) analysis started. The concentrations of the solubilised drug were determined by UV–Vis analysis.

Series [3] relates to P. aeruginosa ATCC 27853. Nature of the series: Biofilm inhibition assay (crystal violet). It is filed as cell-based, Pseudomonas aeruginosa. The conditions noted are these: any of the concentrations tested (3.12, 6.25, 12.5 μg/mL). How it is done: After overnight growth in LB, cultures of P. aeruginosa ATCC 27853 and S. aureus W4 were diluted 1:100 in LB or in 50% tryptone soy broth (TSB, Oxoid) supplemented with 0.25% glucose (Sigma), respectively. The bacterial suspensions were dispensed into flat-bottomed polystyrene 96-well microplates (Corning Costar, Lowell, MA, USA) in the presence of sub-MIC concentrations of Rhe and DIA (3.12, 6.25, and 12.5 μg/mL). A sample containing 0.8 DMSO % (corresponding to the highest concentration of DMSO tested) was used as a control. The microplates were incubated statically at 37 °C for 24 h, and the biofilm biomass was estimated by CV (Sigma-Aldrich) staining assay, as previously described.

In the next series the test system is S. aureus W4. The experiment in a line: Killing assay. In kind it is cell-based, Staphylococcus aureus. The conditions noted are these: 3 h incubation in 5% TSB; DIA 0.34 M, ILs 0.27 M. How it is done: (§1) To this end, the bacterial strains were grown in TSB until the exponential phase, and approximately 5 × 10^4 CFU/mL-contained in 10 μL-was added to 5 μL of TSB, 35 μL of water, and 50 μL of one of the following solutions corresponding to the eye drop compositions tested in vivo: Bet6 or Carn6 with 0.27 M or 0.34 M DIA, plain DIA (0.34 M) solution, or plain Bet6/plain Carn6, both at 0.27 M. All solutions were prepared in CB. The samples were incubated at 37 °C with shaking for 3 h. A sample containing 0.6% DMSO (corresponding to the highest concentration of DMSO tested) was used as a control. Following incubation, the samples were diluted 10-fold in LB and plated on tryptone soy agar (TSA, Oxoid) to determine the number of CFU. Bactericidal activity was defined as a reduction of at least 3 Log10 in the number of viable bacteria as compared to the inoculum.

The subject of series [4] is P. aeruginosa ATCC 27853. Nature of the series: Killing assay. In kind it is cell-based, Pseudomonas aeruginosa. The conditions noted are these: 3 h incubation in 5% TSB; DIA 0.34 M, ILs 0.27 M. Here is the method:
as §1

For series [5], the system named is BALB/3T3 clone A31 fibroblast cells. The experiment in a line: Cytotoxicity screening (WST-1). It is filed as cell-based, murine. The conditions noted are these: Mus musculus, 4 h incubation, read-out: IC50 of cell viability. Here is the method: BALB/3T3 clone A31 fibroblast cells were grown in Dulbecco’s Modified Eagle Medium (DMEM), supplemented with 2 mM L-glutamine, 1% penicillin/streptomycin, and 10% bovine calf serum. Cells were grown in a CO2 incubator (Heracell 150i series) at 37 °C and 5% CO2, with cells sub-cultured at 80–90% confluency. The cell monolayers were rinsed with PBS and treated with trypsin–EDTA to detach the cells before their resuspension in fresh media. A subconfluent monolayer of BALB/3T3 clone A31 fibroblast cells was trypsinised, centrifuged at 1000 rpm for 5 min, resuspended in growth medium, and counted.
A cytotoxicity screening was carried out for both ILs (range […]), as well as DIA and Rhe (0.5–200 mg/mL). Briefly, BALB/3T3 clone A31 fibroblast cells were seeded in each well of 96-well plates at a seeding density of 6 × 10^3 cells/well for 24 h, until 60–70% confluence was reached. After 24 h, the medium was then removed from each well and replaced with DMEM containing the samples.
After 4 h of incubation, the media were removed, replaced with fresh medium containing 10% WST-1 reagent solution, and maintained for 4 h at 37° C with 5% CO2. Afterwards, formazan dye absorbance was quantified at 450 nm with the reference wavelength at 655 nm by using a multilabel reader (BioTek 800/TS, Thermo Scientific).
On the technique in general: Tetrazolium dyes change colour on reduction, which living cells bring about.

One may read the MRT as the average time that molecules of a dose stay in the body. By IC50 is commonly meant the concentration that gives 50% inhibition.

≈ marks a conversion by molar mass, not a printed value. Like-named read-outs stand apart in the source and are kept apart here.

In series [1] (male, New Zealand albino, topical, 50 µL (one drop) of 0.34 M DIA, DIA in rabbit tear fluid), `CC(=O)Oc1cccc2c1C(=O)c1c(OC(C)=O)cc(C(=O)O)cc1C2=O` [DIA, diacerein] gave an MRT of 4.55 min. Moreover, in series [1] (rabbit tear fluid, 0.34 M DIA), the “AUC (DIA concentration in tear fluid vs time)” value is given as 0.06 ± 0.002. Besides, the solubility at 30 min came out at 1350 µg/mL (≈ 3670 µM) in series [2] (Bet6 solutions in citrate buffer, pH 5, aqueous with cosolvent or surfactant or cyclodextrin, in Bet6 solutions) and 680 µg/mL (≈ 1850 µM) in series [2] (aqueous Carn6 solutions, aqueous with cosolvent or surfactant or cyclodextrin, in Carn6 solutions). The “biofilm formation (CV staining, OD 570 nm), difference vs control” value in the series with P. aeruginosa ATCC 27853 [3] is listed as “not statistically significant”. In addition, the bactericidal effect entry in the series with S. aureus W4 and with P. aeruginosa ATCC 27853 [4] was “no evident bactericidal effect” each time. The IC50 in series [5] is 116 µg/mL (≈ 316 µM).
